Source: patent US6274715A, “Tricyclic erythromycin derivatives” (priority 1997, dated 2001)
Converted amounts (≈) assume the structure as drawn.

Columns and labels:
Type in all cases: cell-based
ESCHERICHIA COLI JUHL = settings: E. coli JUHL; BHI agar; unit assumed
[1] = test system: STAPHYLOCOCCUS AUREUS ATCC 6538P; assay: In vitro antibacterial activity, MIC, BHI agar dilution; settings: S. aureus ATCC 6538P, 35-37° C., 20 to 24 hours, unit assumed
[2] = test system: STAPHYLOCOCCUS AUREUS CMX 553; assay: as above; settings: S. aureus CMX 553, unit assumed
M[…] ATCC 9341 = assay: as above; settings: M. luteus ATCC 9341, unit assumed
Method in brief: (§1)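 BHI agar dilution, 12 plates; inoculum 1:100 (1:10 slow-growing strains), Steers replicator; 35-37° C, 20-24 h. MIC = lowest conc. with no growth/slight haze/sparse colonies vs growth control, visual read. Erythromycin A reference plate.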

STR[…] 508 = assay: as above; settings: S. agalactiae CMX 508, unit assumed
Method in brief: as §1

EN[…] ATCC 8043 = assay: as above; settings: E. faecium ATCC 8043, unit assumed
Method in brief: as §1

M[…] ATCC 4698 = assay: as above; settings: M. luteus ATCC 4698, unit assumed
Method in brief: as §1

[3] = test system: ACINETOBACTER CALCOACETICUS CMX 669; assay: as above; settings: A. calcoaceticus CMX 669, unit assumed
PSEUDOMONAS CEPACIA 296I = assay: as above; settings: P. cepacia 296I, unit assumed
[4] = test system: PSEUDOMONAS AERUGINOSA K799/WT; assay: as above; settings: P. aeruginosa K799/WT, unit assumed
[5] = test system: STAPHYLOCOCCUS AUREUS NCTC10649M; assay: as above; settings: S. aureus NCTC10649M, unit assumed
[6] = test system: KLEBSIELLA PNEUMONIAE ATCC 8045; assay: as above; settings: K. pneumoniae ATCC 8045, unit assumed
[7] = test system: ENTEROBACTER AEROGENES ATCC 13048; assay: as above; settings: E. aerogenes ATCC 13048, unit assumed
[8] = test system: STAPHYLOCOCCUS AUREUS 1775; assay: as above; settings: S. aureus 1775, unit assumed
[9] = test system: STAPHYLOCOCCUS EPIDERMIDIS 3519; settings: S. epidermidis 3519; BHI agar; unit assumed
ESCHERICHIA COLI DC-2 = assay: In vitro antibacterial activity, MIC, BHI agar dilution; settings: E. coli DC-2, unit assumed
[10] = test system: STREPTOCOCCUS PYOGENES PIU 2548; assay: as above; settings: S. pyogenes PIU 2548, unit assumed
[11] = test system: STAPHYLOCOCCUS AUREUS A-5278; assay: as above; settings: S. aureus A-5278, unit assumed
ESCHERICHIA COLI H560 = assay: as above; settings: E. coli H560, unit assumed
CANDIDA ALBICANS CCH 442 = assay: as above; settings: C. albicans CCH 442, unit assumed
[12] = test system: PSEUDOMONAS AERUGINOSA 5007; assay: as above; settings: P. aeruginosa 5007, unit assumed
[13] = test system: STREPTOCOCCUS PYOGENES 930; assay: as above; settings: S. pyogenes 930, unit assumed
ESCHERICHIA COLI SS = assay: as above; settings: E. coli SS, unit assumed
[14] = test system: PSEUDOMONAS AERUGINOSA DPHD-5263; assay: as above; settings: P. aeruginosa DPHD-5263, unit assumed
[15] = test system: PSEUDOMONAS AERUGINOSA K799/61; assay: as above; settings: P. aeruginosa K799/61, unit assumed
[16] = test system: PROVIDENCIA STUARTII CMX 640; settings: P. stuartii CMX 640; BHI agar; unit assumed
[17] = test system: STREPTOCOCCUS BOVIS A-5169; assay: In vitro antibacterial activity, MIC, BHI agar dilution; settings: S. bovis A-5169, unit assumed
ESCHERICHIA COLI KNK 437 = settings: E. coli KNK 437; BHI agar; unit assumed
[18] = test system: STAPHYLOCOCCUS AUREUS CMX 642A; assay: In vitro antibacterial activity, MIC, BHI agar dilution; settings: S. aureus CMX 642A, unit assumed
[19] = test system: PSEUDOMONAS AERUGINOSA BMH10; assay: as above; settings: P. aeruginosa BMH10, unit assumed
[20] = test system: STREPTOCOCCUS PYOGENES EES61; assay: as above; settings: S. pyogenes EES61, unit assumed
[21] = test system: PSEUDOMONAS AERUGINOSA DPHD-2862; assay: as above; settings: P. aeruginosa DPHD-2862, unit assumed
[22] = test system: MYCOBACTERIUM SMEGMATIS ATCC 114; assay: as above; settings: M. smegmatis ATCC 114, unit assumed

Row | SMILES | MIC (ESCHERICHIA COLI JUHL) [mg/L] | MIC [2] [mg/L] | MIC (M[…] ATCC 9341) [mg/L] | MIC (STR[…] 508) [mg/L] | MIC (EN[…] ATCC 8043) [mg/L] | MIC (M[…] ATCC 4698) [mg/L] | MIC [3] [mg/L] | MIC (PSEUDOMONAS CEPACIA 296I) [mg/L] | MIC [4] [mg/L] | MIC [6] [mg/L] | MIC [7] [mg/L] | MIC [8] [mg/L] | MIC [9] [mg/L] | MIC (ESCHERICHIA COLI DC-2) [mg/L] | MIC [10] [mg/L] | MIC [11] [mg/L] | MIC (ESCHERICHIA COLI H560) [mg/L] | MIC (CANDIDA ALBICANS CCH 442) [mg/L] | MIC [12] [mg/L] | MIC [13] [mg/L] | also measured
1 | CC[C@H]1OC(=O)[C@H](C)C(=O)[C@H](C)[C@@H](O[C@@H]2O[C@H](C)C[C@H](N(C)C)[C@H]2O)[C@](C)(OC)C[C@@H](C)C2=N[C@H](COCc3ccc(Cl)cc3)CN3C(=O)O[C@@]1(C)[C@H]3[C@H]2C [Example 79] | > 100 | 0.39 (≈ 0.492 µM) | 0.05 (≈ 0.0631 µM) | ≤ 0.005 | 0.1 (≈ 0.126 µM) | 0.39 (≈ 0.492 µM) | 100 (≈ 126 µM) | 100 (≈ 126 µM) | > 100 | > 100 | > 100 | 100 (≈ 126 µM) | 0.39 (≈ 0.492 µM) | > 100 | 0.39 (≈ 0.492 µM) | 100 (≈ 126 µM) | > 100 | 100 (≈ 126 µM) | > 100 | 50 (≈ 63.1 µM) | MIC [1]: 0.39 mg/L (≈ 0.492 µM); MIC [5]: 0.39 mg/L (≈ 0.492 µM); MIC (ESCHERICHIA COLI SS): 1.56 mg/L (≈ 1.97 µM); MIC [14]: > 100 mg/L; MIC [15]: 3.1 mg/L (≈ 3.91 µM); MIC [16]: > 100 mg/L; MIC [17]: 0.01 mg/L (≈ 0.0126 µM); MIC (ESCHERICHIA COLI KNK 437): > 100 mg/L; MIC [18]: 0.39 mg/L (≈ 0.492 µM); MIC [19]: > 100 mg/L; MIC [20]: 0.01 mg/L (≈ 0.0126 µM); MIC [21]: > 100 mg/L; MIC [22]: 0.78 mg/L (≈ 0.984 µM)
2 | CC[C@H]1OC(=O)[C@H](C)C(=O)[C@H](C)[C@@H](O[C@@H]2O[C@H](C)C[C@H](N(C)C)[C@H]2O)[C@](C)(OC)C[C@@H](C)C2=N[C@H](COCc3cccc(Cl)c3)CN3C(=O)O[C@@]1(C)[C@H]3[C@H]2C [Example 80] | > 100 | 0.39 (≈ 0.492 µM) | 0.05 (≈ 0.0631 µM) | ≤ 0.005 | 0.05 (≈ 0.0631 µM) | 0.2 (≈ 0.252 µM) | 100 (≈ 126 µM) | 100 (≈ 126 µM) | > 100 | > 100 | > 100 | 100 (≈ 126 µM) | 0.39 (≈ 0.492 µM) | > 100 | 0.2 (≈ 0.252 µM) | 100 (≈ 126 µM) | > 100 | 100 (≈ 126 µM) | > 100 | 50 (≈ 63.1 µM) | MIC [1]: 0.39 mg/L (≈ 0.492 µM); MIC (ESCHERICHIA COLI SS): 1.56 mg/L (≈ 1.97 µM); MIC [14]: > 100 mg/L; MIC [15]: 3.1 mg/L (≈ 3.91 µM); MIC [16]: > 100 mg/L; MIC [17]: ≤ 0.005 mg/L; MIC (ESCHERICHIA COLI KNK 437): > 100 mg/L; MIC [18]: 0.39 mg/L (≈ 0.492 µM); MIC [19]: > 100 mg/L; MIC [20]: 0.01 mg/L (≈ 0.0126 µM); MIC [21]: > 100 mg/L; MIC [22]: 1.56 mg/L (≈ 1.97 µM)
3 | CC[C@H]1OC(=O)[C@H](C)C(=O)[C@H](C)[C@@H](O[C@@H]2O[C@H](C)C[C@H](N(C)C)[C@H]2O)[C@](C)(OC)C[C@@H](C)C2=NC3CN(CCOC)CC3N3C(=O)O[C@@]1(C)[C@H]3[C@H]2C (stereo partly drawn) [Example 126] | > 100 | 1.56 (≈ 2.12 µM) | 0.2 (≈ 0.271 µM) | 0.05 (≈ 0.0678 µM) | 0.2 (≈ 0.271 µM) | 0.78 (≈ 1.06 µM) | 100 (≈ 136 µM) | > 100 | > 100 | > 100 | > 100 | > 100 | 1.56 (≈ 2.12 µM) | > 100 | 1.56 (≈ 2.12 µM) | > 100 | > 100 | > 100 | > 100 | > 100 | MIC (ESCHERICHIA COLI SS): 0.78 mg/L (≈ 1.06 µM); MIC [14]: > 100 mg/L; MIC [15]: 3.1 mg/L (≈ 4.21 µM); MIC [16]: > 100 mg/L; MIC [17]: 0.02 mg/L (≈ 0.0271 µM); MIC (ESCHERICHIA COLI KNK 437): > 100 mg/L; MIC [18]: 1.56 mg/L (≈ 2.12 µM); MIC [19]: > 100 mg/L; MIC [20]: 0.05 mg/L (≈ 0.0678 µM); MIC [21]: > 100 mg/L; MIC [22]: 12.5 mg/L (≈ 17 µM)
